Data as given in US8044100B2, “Methods and compositions for treating amyloid-related diseases” (Bellus Health Inc., priority 2004, dated 2011).

Test system: Aβ peptides (Aβ40, Aβ42) in the plasma and brain of TgCRND8 mice
Experiment: Long term treatment (8 or 16 weeks) in TgCRND8 mice: Aβ levels in plasma and brain
Format: in vivo, mouse
Settings: for Brain Abeta40 insoluble / Brain Abeta40 soluble / Brain Abeta42 insoluble / Brain Abeta42 soluble / Plasma Abeta40 / Plasma Abeta42: BX subcutaneous, BW and BZ oral
Method: The long-term therapeutic effects of compounds of the present invention on cerebral amyloid deposition and β-amyloid (Aβ) levels in the plasma and in the brains of transgenic mice, TgCRND8, expressing the human amyloid precursor protein (hAPP) was studied. These compounds were administered over an 8 or 16 week period at the end of which the levels of Aβ peptides in the plasma and brain of TgCRND8 animals were determined. The goal of this study was to evaluate the efficacy of the compounds at modulating the progression of the amyloidogenic process in the brain and in the plasma of a transgenic mouse model of Alzheimer's disease (AD)
The mice used in the study consisted of animals bearing one copy of the hAPP gene (+/−) from the 2nd and 3rd generation progenies (N2 and N3) derived from backcrosses from TgCRND8.FVB(N2)AJ(N3) with B6AF1/J hybrid animals. • N1=TgCRND8.FVB(N2)AJ(N3)×B6AF1/J • N2=TgCRND8.FVB(N2)AJ(N3).B6AF1/J(N1)×B6AF1/J • N3=TgCRND8.FVB(N2)AJ(N3).B6AF1/J(N2)×B6AF1/J
The following abbreviations are used to designate these animals in the present study: TgCRND8.B6AF1/J(N2); TgCRND8.B6AF1/J(N3). Male and female transgenic mice were given daily subcutaneous (compound BX) or oral (compounds BW and BZ) administrations of the appropriate compounds for 8 or 16 weeks.
Baseline animals consisted of 9±1 week old naive TgCRND8.B6AF1/J animals from the 2nd and 3rd generations. These mice were used to determine the extent of cerebral amyloid deposits and Aβ levels in the plasma and brain of naive transgenic animals at the initiation of treatment.
Starting at 9 weeks of age (+1 week) animals received daily administration of their respective treatment for a period of 8 or 16 weeks, at a dose of 30 or 100 mg/kg at 10 ml/kg. The route of administration was subcutaneous for water-soluble compounds (Compound BX) and oral for compounds solubilized in methylcellulose 1% (MC 1%) (Compounds BW and BZ). At the end of the treatment periods, plasma and perfused brains were collected for quantification of Aβ levels.
Animal health was monitored, samples were collected and Aβ levels were measured as described above in the short term treatment study. Compounds were scored based on their ability to modulate levels of Aβ peptides in the plasma and the cerebral soluble/insoluble levels in the brain. Levels of Aβ observed in the plasma and brain of treated animals were compared to that of vehicle-treated (water) or methylcellulose-treated control groups and ranked according to the strength of the pharmacological effect. Increases in the levels of Aβ peptides are indicated using “+” symbols, while decreases in the levels of Aβ peptides are indicated using “−” symbols. The strongest effects are recorded as “+++” or “−−−” while the weakest are shown as “+” or “−”.
Specifically, increases in the levels of Aβ (relative to vehicle treated control) of 5 to 14% are scored as “+”; increases of 15 to 29% are scored as “++”; and increases of 30% or higher are scored as “+++”. Decreases in the levels of Aβ of 5 to 14% are scored as “−”; decreases of 15 to 29% are scored as “−−”; and decreases of 30% or more are scored as “−−−”. Additionally, changes of 4% or less in either direction are scored as “0”.

Q: With `O=S(=O)(O)CCCNC12CC3CC(CC(C3)C1)C2` [BW] as the molecule, how does the “Brain Abeta40 insoluble” value (30 mg/kg daily, 8 wks) read?
A: −− (decreases of 15 to 29%)

Q: What about the “Brain Abeta40 soluble” value (30 mg/kg daily, 8 wks) of the same molecule?
A: − (Decreases in the levels of Aβ of 5 to 14%)

Q: And the “Brain Abeta42 insoluble” value (30 mg/kg daily, 8 wks)?
A: 0 (changes of 4% or less in either direction)

Q: What about the “Brain Abeta42 soluble” value (30 mg/kg daily, 8 wks) of the same molecule?
A: −− (decreases of 15 to 29%)

Q: And the “Plasma Abeta40” value (30 mg/kg daily, 8 wks)?
A: −−− (decreases of 30% or more)

Q: What about the “Plasma Abeta42” value (30 mg/kg daily, 8 wks) of the same molecule?
A: −−− (decreases of 30% or more)

Q: What about the “Brain Abeta40 insoluble” value (30 mg/kg daily, 16 wks) of the same molecule?
A: ++ (increases of 15 to 29%)

Q: What about the “Brain Abeta40 soluble” value (30 mg/kg daily, 16 wks) of the same molecule?
A: + (increases in the levels of Aβ (relative to vehicle treated control) of 5 to 14%)

Q: And the “Brain Abeta42 insoluble” value (30 mg/kg daily, 16 wks)?
A: + (increases in the levels of Aβ (relative to vehicle treated control) of 5 to 14%)

Q: And the “Brain Abeta42 soluble” value (30 mg/kg daily, 16 wks)?
A: − (Decreases in the levels of Aβ of 5 to 14%)

Q: What about the “Plasma Abeta40” value (30 mg/kg daily, 16 wks) of the same molecule?
A: −− (decreases of 15 to 29%)

Q: And the “Plasma Abeta42” value (30 mg/kg daily, 16 wks)?
A: −− (decreases of 15 to 29%)

Q: And the “Brain Abeta40 insoluble” value (100 mg/kg daily, 8 wks)?
A: −−− (decreases of 30% or more)

Q: And the “Brain Abeta40 soluble” value (100 mg/kg daily, 8 wks)?
A: −− (decreases of 15 to 29%)

Q: And the “Brain Abeta42 insoluble” value (100 mg/kg daily, 8 wks)?
A: −−− (decreases of 30% or more)

Q: What about the “Brain Abeta42 soluble” value (100 mg/kg daily, 8 wks) of the same molecule?
A: −− (decreases of 15 to 29%)

Q: And the “Plasma Abeta40” value (100 mg/kg daily, 8 wks)?
A: − (Decreases in the levels of Aβ of 5 to 14%)

Q: And the “Plasma Abeta42” value (100 mg/kg daily, 8 wks)?
A: − (Decreases in the levels of Aβ of 5 to 14%)

Q: What about the “Brain Abeta40 insoluble” value (100 mg/kg daily, 16 wks) of the same molecule?
A: + (increases in the levels of Aβ (relative to vehicle treated control) of 5 to 14%)

Q: What about the “Brain Abeta40 soluble” value (100 mg/kg daily, 16 wks) of the same molecule?
A: ++ (increases of 15 to 29%)

Q: What about the “Brain Abeta42 insoluble” value (100 mg/kg daily, 16 wks) of the same molecule?
A: ++ (increases of 15 to 29%)

Q: And the “Brain Abeta42 soluble” value (100 mg/kg daily, 16 wks)?
A: + (increases in the levels of Aβ (relative to vehicle treated control) of 5 to 14%)

Q: What about the “Plasma Abeta40” value (100 mg/kg daily, 16 wks) of the same molecule?
A: − (Decreases in the levels of Aβ of 5 to 14%)

Q: And the “Plasma Abeta42” value (100 mg/kg daily, 16 wks)?
A: − (Decreases in the levels of Aβ of 5 to 14%)

Q: And the “brain and plasma levels of Aβ” value (at 8 weeks)?
A: dramatic decrease

Q: And the “plasma levels of Aβ” value (at 16 weeks)?
A: dramatic decrease

Q: Which “Brain Abeta40 insoluble” value (30 mg/kg daily, 8 wks) does the source give for `CC(C)(C)NCCCS(=O)(=O)O` [BX, 3-(t-butyl)amino-1-propanesulfonic acid] here?
A: −−− (decreases of 30% or more)

Q: And the “Brain Abeta40 soluble” value (30 mg/kg daily, 8 wks)?
A: −−− (decreases of 30% or more)

Q: What about the “Brain Abeta42 insoluble” value (30 mg/kg daily, 8 wks) of the same molecule?
A: −− (decreases of 15 to 29%)

Q: And the “Brain Abeta42 soluble” value (30 mg/kg daily, 8 wks)?
A: −−− (decreases of 30% or more)

Q: And the “Plasma Abeta40” value (30 mg/kg daily, 8 wks)?
A: + (increases in the levels of Aβ (relative to vehicle treated control) of 5 to 14%)

Q: What about the “Plasma Abeta42” value (30 mg/kg daily, 8 wks) of the same molecule?
A: + (increases in the levels of Aβ (relative to vehicle treated control) of 5 to 14%)

Q: And the “Brain Abeta40 insoluble” value (30 mg/kg daily, 16 wks)?
A: −−− (decreases of 30% or more)

Q: What about the “Brain Abeta40 soluble” value (30 mg/kg daily, 16 wks) of the same molecule?
A: −− (decreases of 15 to 29%)

Q: And the “Brain Abeta42 insoluble” value (30 mg/kg daily, 16 wks)?
A: − (Decreases in the levels of Aβ of 5 to 14%)

Q: And the “Brain Abeta42 soluble” value (30 mg/kg daily, 16 wks)?
A: 0 (changes of 4% or less in either direction)

Q: What about the “Plasma Abeta40” value (30 mg/kg daily, 16 wks) of the same molecule?
A: − (Decreases in the levels of Aβ of 5 to 14%)

Q: And the “Plasma Abeta42” value (30 mg/kg daily, 16 wks)?
A: − (Decreases in the levels of Aβ of 5 to 14%)

Q: What about the “Brain Abeta40 insoluble” value (100 mg/kg daily, 8 wks) of the same molecule?
A: ++ (increases of 15 to 29%)

Q: What about the “Brain Abeta40 soluble” value (100 mg/kg daily, 8 wks) of the same molecule?
A: + (increases in the levels of Aβ (relative to vehicle treated control) of 5 to 14%)

Q: And the “Brain Abeta42 insoluble” value (100 mg/kg daily, 8 wks)?
A: 0 (changes of 4% or less in either direction)

Q: And the “Brain Abeta42 soluble” value (100 mg/kg daily, 8 wks)?
A: + (increases in the levels of Aβ (relative to vehicle treated control) of 5 to 14%)

Q: And the “Plasma Abeta40” value (100 mg/kg daily, 8 wks)?
A: ++ (increases of 15 to 29%)

Q: And the “Plasma Abeta42” value (100 mg/kg daily, 8 wks)?
A: +++ (increases of 30% or higher)

Q: What about the “Brain Abeta40 insoluble” value (100 mg/kg daily, 16 wks) of the same molecule?
A: −−− (decreases of 30% or more)

Q: And the “Brain Abeta40 soluble” value (100 mg/kg daily, 16 wks)?
A: − (Decreases in the levels of Aβ of 5 to 14%)

Q: What about the “Brain Abeta42 insoluble” value (100 mg/kg daily, 16 wks) of the same molecule?
A: −− (decreases of 15 to 29%)

Q: And the “Brain Abeta42 soluble” value (100 mg/kg daily, 16 wks)?
A: 0 (changes of 4% or less in either direction)

Q: And the “Plasma Abeta40” value (100 mg/kg daily, 16 wks)?
A: − (Decreases in the levels of Aβ of 5 to 14%)

Q: And the “Plasma Abeta42” value (100 mg/kg daily, 16 wks)?
A: 0 (changes of 4% or less in either direction)

Q: What about the “amount of Aβ in the brain” value (at both 8 and 16 weeks) of the same molecule?
A: dramatic decrease
